Laboratory results from ChEMBL document CHEMBL4651402, “Screening of ~5500 FDA-approved drugs and clinical candidates for anti-SARS-CoV-2 activity” (2021).

Test system: SARS-CoV-2
Assay: microbe, parasite or virus in culture
Settings: Severe acute respiratory syndrome coronavirus 2, Vero C1008, 48 h

SMILES | IC50 | IC50 (read-out: pIC50 (converted))
C[C@]12O[C@H](C[C@]1(O)CO)n1c3ccccc3c3c4c(c5c6ccccc6n2c5c31)CNC4=O [LESTAURTINIB] | > 20 µM | > 20 µM
[N-]=[N+]=N[C@]1(CO)O[C@@H](n2ccc(N)nc2=O)[C@@H](F)[C@@H]1O [RO-0622] | > 20 µM | > 20 µM
CCOC(=O)c1ccc(O)cc1 [ETHYLPARABEN] | > 20 µM | > 20 µM
CN1[C@@H]2C[C@@H](OC(=O)[C@H](CO)c3ccccc3)C[C@H]1[C@@H]1O[C@@H]12 [SCOPOLAMINE] | > 20 µM | > 20 µM
COC(=O)N[C@@H](C(=O)N1CCC[C@@H]1c1ncc(-c2ccc(-c3ccc(-c4cnc([C@H]5CC6(CN5C(=O)[C@H](NC(=O)OC)C(C)C)OCCO6)[nH]4)cc3)cc2)[nH]1)C(C)C | > 20 µM | > 20 µM
O=C(O)CCCN1CCC[C@H]1COc1ccc(Oc2ccc(Cl)cc2)cc1 | > 20 µM | > 20 µM
CS(=O)(=O)c1ccc(C(=O)Nc2ccc(Cl)c(-c3ccccn3)c2)c(Cl)c1 [VISMODEGIB] | > 20 µM | > 20 µM
C=CCN1CCC23c4c5ccc(O)c4OC2C(O)C=CC3C1C5 (stereo not drawn) | > 20 µM | > 20 µM
CCOC(=O)C1=CCCC[C@@H]1S(=O)(=O)Nc1ccc(F)cc1Cl | > 20 µM | > 20 µM
COc1cc2c(cc1OC)[C@H]1CC(=O)[C@H](CC(C)C)CN1CC2 | > 20 µM | > 20 µM
COc1ccc(-c2cc(=O)c3c(O)cc(O)cc3o2)cc1 [ACACETIN] | > 20 µM | > 20 µM
CC(=O)OC1C=C2CCC3C(CCC4(C)C(OC(C)=O)CCC34)C2(C)CC1 (stereo not drawn) | > 20 µM | > 20 µM
CC(C)(CO)[C@@H](O)C(=O)NCCC(=O)O [PANTOTHENIC ACID] | > 20 µM | > 20 µM
CC(C)CCCC(C)C1CCC2C3CC[C@H]4CCCC[C@]4(C)C3CCC12C (stereo partly drawn) | > 20 µM | > 20 µM
Cc1cc(OCCCS(C)(=O)=O)cc(C)c1-c1cccc(COc2ccc3c(c2)OC[C@@H]3CC(=O)O)c1 | > 20 µM | > 20 µM
Cn1cc(Nc2nccc(N3CC4CCC(C3)N4C(=O)[C@@H]3CC3(F)F)n2)cn1 | > 20 µM | > 20 µM
CN(C)[C@@H]1[C@@H]2C=CC[C@H]1c1ccccc1C2 | > 20 µM | > 20 µM
NC(=O)OCC(O)COc1ccc(Cl)cc1 (stereo not drawn) [CHLORPHENESIN CARBAMATE] | > 20 µM | > 20 µM
CO[C@H]1/C=C\C=C(\C)C(=O)NC2=CC(=O)C(NCCN(C)C)=C(C[C@@H](C)C[C@H](OC)[C@H](O)[C@@H](C)/C=C(/C)[C@@H]1OC(N)=O)C2=O | > 20 µM | > 20 µM
CC(C)(C)OC(=O)N1CCC[C@H]1CO | > 20 µM | > 20 µM

SMILES | IC50 | IC50 (read-out: pIC50 (converted))
O=C(O)CNC(=O)c1ccccc1 [HIPPURIC ACID] | > 20 µM | > 20 µM
Nc1nc(=S)c2ncn([C@@H]3O[C@H](CO)[C@@H](O)[C@H]3O)c2[nH]1 [THIOGUANOSINE] | > 20 µM | > 20 µM
O=c1c(-c2ccccc2)c1-c1ccccc1 [DIPHENCYPRONE] | > 20 µM | > 20 µM
CCCCN1C[C@@H](O)[C@@H](O)[C@H](O)[C@H]1CO | > 20 µM | > 20 µM
CCc1nn(CCCN2CCN(c3cccc(Cl)c3)CC2)c(=O)n1CCOc1ccccc1 [NEFAZODONE] | > 20 µM | > 20 µM
C[C@@H]1C[C@H]2[C@@H]3CCC4=CC(=O)C=C[C@]4(C)[C@@]3(F)[C@@H](O)C[C@]2(C)[C@H]1C(=O)CO [DESOXIMETASONE] | > 20 µM | > 20 µM
CC[C@H]1OC(=O)[C@H](C)[C@@H](O[C@H]2C[C@@](C)(OC)[C@@H](O)[C@H](C)O2)[C@H](C)[C@@H](O[C@@H]2O[C@H](C)C[C@H](N(C)C)[C@H]2O)[C@](C)(O)C[C@@H](C)/C(=N\OCOCCOC)[C@H](C)[C@@H](O)[C@]1(C)O [ROXITHROMYCIN] | > 20 µM | > 20 µM
CC[N+](C)(CC)CCOC(=O)C(O)(c1cccs1)C1CCCC1 (stereo not drawn) [PENTHIENATE] | > 20 µM | > 20 µM
CN(NC(=O)CC(=O)NN(C)C(=S)c1ccccc1)C(=S)c1ccccc1 [ELESCLOMOL] | > 20 µM | > 20 µM
C[C@@H]1CC(=O)NN=C1c1ccc(NN=C(C#N)C#N)cc1 [LEVOSIMENDAN] | > 20 µM | > 20 µM
O=C(O)C1CCCN(CCC=C2c3ccccc3CCc3ccccc32)C1 (stereo not drawn) | > 20 µM | > 20 µM
COc1cc([C@@H]2c3cc4c(cc3[C@@H](O[C@@H]3O[C@@H]5CO[C@@H](C)O[C@H]5[C@H](O)[C@H]3O)[C@H]3COC(=O)[C@H]23)OCO4)cc(OC)c1O [ETOPOSIDE] | > 20 µM | > 20 µM
CCOC(=O)Nc1ccc2c(c1)N(C(=O)CCN(CC)CC)c1ccccc1S2 [ETHACIZINE] | > 20 µM | > 20 µM
CCOC(=O)C(CCN1CCOCC1)(c1ccccc1)c1ccccc1 [DIOXAPHETYL BUTYRATE] | > 20 µM | > 20 µM
C=C1CCC2C(CC2(C)C)C(=O)CCC1O (stereo not drawn) [ISOKOBUSONE] | > 20 µM | > 20 µM
N[C@@H](CCC(=O)N[C@@H](CS)C(=O)NCC(=O)O)C(=O)O [GLUTATHIONE] | > 20 µM | > 20 µM
CNC(=O)[C@H]1O[C@@H](n2cnc3c(NCc4cccc(I)c4)nc(Cl)nc32)[C@H](O)[C@@H]1O [NAMODENOSON] | > 20 µM | > 20 µM
CCC(C)(CN(C)C)OC(=O)c1ccccc1 (stereo not drawn) [AMYLOCAINE] | > 20 µM | > 20 µM
C[C@@H]1c2nnn(-c3ncc(F)cn3)c2CCN1C(=O)c1cccc(C(F)(F)F)c1Cl [JNJ-54175446] | > 20 µM | > 20 µM
CC[C@H](Nc1ncnc2[nH]cnc12)c1nc2cccc(F)c2c(=O)n1-c1ccccc1 [IDELALISIB] | > 20 µM | > 20 µM

SMILES | IC50 | IC50 (read-out: pIC50 (converted))
O=C(O)c1cc(NC(=O)[C@@H](Cc2ccccc2F)NC(=O)c2cc3[nH]cnc3cc2C(=O)NCC2CCCCCC2)cc(C(=O)O)c1 | > 20 µM | > 20 µM
CCCN(CCC)C(=O)C(CCC(=O)O)NC(=O)c1ccccc1 (stereo not drawn) [PROGLUMIDE] | > 20 µM | > 20 µM
O=C(/C=C/c1cccnc1)NCCCCC1CCN(C(=O)c2ccccc2)CC1 [DAPORINAD] | > 20 µM | > 20 µM
C[C@@H]1C[C@H]2[C@@H]3CCC4=CC(=O)C=C[C@]4(C)[C@@]3(Cl)[C@@H](O)C[C@]2(C)[C@@]1(OC(=O)c1ccco1)C(=O)CCl [MOMETASONE FUROATE] | > 20 µM | > 20 µM
CCCCc1nc(Cl)c(CO)n1Cc1ccc(-c2ccccc2-c2nnn[nH]2)cc1 [LOSARTAN] | > 20 µM | > 20 µM
O=C(CN1C(=O)c2ccccc2S1(=O)=O)Nc1ccc(O)cc1 | > 20 µM | > 20 µM
O=C1CN=C(c2ccccc2Cl)c2cc([N+](=O)[O-])ccc2N1 [CLONAZEPAM] | > 20 µM | > 20 µM
OB1OCc2cc(F)ccc21 [TAVABOROLE] | > 20 µM | > 20 µM
c1ccc(C2(c3ccccc3)OCC(C3CCCCN3)O2)cc1 (stereo not drawn) [DIOXADROL] | > 20 µM | > 20 µM
Cc1ccn(-c2cc(Cl)ccc2[C@@H](Oc2cc(-c3ccc(C[C@H](N)C(=O)O)cc3)nc(N)n2)C(F)(F)F)n1 [TELOTRISTAT] | > 20 µM | > 20 µM
CCc1cccc(CC)c1NC(=O)CN(CC(=O)O)CC(=O)O [ETIFENIN] | > 20 µM | > 20 µM
Cc1cccc(C)c1CNc1cc(C(=O)NCCO)cn2c(C)c(C)nc12 [LINAPRAZAN] | > 20 µM | > 20 µM
CCO[C@H](COc1ccc(C(F)(F)F)cc1)CSc1ccc(OCC(=O)O)c(C)c1 | > 20 µM | > 20 µM
CSc1ccc(C(=O)/C=C/c2cc(C)c(OC(C)(C)C(=O)O)c(C)c2)cc1 [ELAFIBRANOR] | > 20 µM | > 20 µM
COc1cc2nc(N(C)CCCNC(=O)C3CCCO3)nc(N)c2cc1OC (stereo not drawn) [ALFUZOSIN] | > 20 µM | > 20 µM
CN1CCC(=C2c3ccccc3CCn3c(C=O)cnc32)CC1 [ALCAFTADINE] | > 20 µM | > 20 µM
Cc1ccc(C2(O)CCN(CCCC(=O)c3ccc(F)cc3)CC2)cc1 [MOPERONE] | > 20 µM | > 20 µM
CC1Cc2ccccc2N1NC(=O)c1ccc(Cl)c(S(N)(=O)=O)c1 (stereo not drawn) [INDAPAMIDE] | > 20 µM | > 20 µM
O=C(c1ccc(Oc2ccc(F)cc2)nc1)N1CCCN(C2CCC2)CC1 [JNJ-39220675] | > 20 µM | > 20 µM
